# ChEMBL document CHEMBL1641408, “Two dimeric lignans with an unusual α,β-unsaturated ketone motif from Zanthoxylum podocarpum and their inhibitory effects on nitric oxide production” (Bioorg Med Chem Lett, 2011)
# Test system: RAW264.7
# Test: Antiinflammatory activity in mouse RAW264.7 cells assessed as inhibition of LPS-induced nitric oxide production after 18 hrs by Griess reagent method
# Type: functional, cell-based
# Settings: RAW264.7, 18 h
row,IC50 [µM],SMILES
1,5.31,COc1ccc([C@@H]2OC[C@@H]3[C@H]2CO[C@H]3[C@@H]2C(=O)C=C3OCOC3(Oc3ccc([C@H]4OC[C@@H]5[C@H]4CO[C@H]5c4ccc5c(c4)OCO5)cc3OC)[C@H]2O)cc1OC (some centres not stated) [ZANTHPODOCARPINS A]
2,12.2,COc1cc([C@@H]2OC[C@@H]3[C@H]2CO[C@@H]3c2ccc(OC34OCOC3=CC(=O)[C@@H]([C@@H]3OC[C@H]5[C@@H]3CO[C@H]5c3ccc(OC)c(OC)c3)[C@@H]4O)c(OC)c2)ccc1O (some centres not stated) [ZANTHPODOCARPIN B]
